Data published in patent publication US12291519B2, “2-hydroxycycloalkane-1-carbamoyl” (Idorsia Pharmaceuticals Ltd, priority 2019, dated 2025).

Assays:
[1] = molecular target: human Gal-1 (hGal-1); experiment: Competitive binding assay: biotinylated hGal-1 binding to microplate-adsorbed asialofetuin (ASF); settings: Activity on hGal-1; binding of biotinylated hGal-1 to ASF-coated plates; mean values
Method: (§1) Evaluation of Compound Inhibitory Activity (IC50)
The inhibitory activity of compounds is determined in competitive binding assays. This spectrophotometric assay measures the binding of biotinylated human Gal-3 (hGal-3) or human Gal-1 (hGAl-1), respectively, to a microplate-adsorbed glycoprotein, asialofetuin (ASF) (Proc Natl Acad Sci USA. 2013 Mar. 26; 110(13):5052-7.). Alternatively, and preferably, a human Gal-1 version in which all six cysteines are substituted by serines may be used.
Briefly, compounds are serially diluted in DMSO (working dilutions). ASF-coated 384 well pates are supplemented with 22.8 μL/well of biotinylated hGal-3 or hGal-1 in assay buffer (i.e. 300-1000 ng/mL biotinylated hGal-3 or hGal-1) to which 1.2 μL of compound working dilutions are added and mixed.
(§2) Plates are incubated for 3 hours at 4° C. then washed with cold assay buffer (3×50 uL), incubated for 1 hour with 25 μL/well of a streptavidin-peroxidases solution (diluted in assay buffer to 80 ng/mL) at 4° C., followed by further washing steps with assay buffer (3×50 uL). Finally, 25 μL/well of ABTS substrate is added. OD (410 nm) is recorded after 30 to 45 min and IC50 values are calculated.
(§3) The calculated IC50 values may fluctuate depending on the daily assay performance. Fluctuations of this kind are known to those skilled in the art. IC50 values from several measurements are given as mean values.

[2] = molecular target: human Gal-3 (hGal-3) (Homo sapiens (Human), UniProt P17931); experiment: Competitive binding assay: biotinylated hGal-3 binding to microplate-adsorbed asialofetuin (ASF); settings: Activity on hGal-3; binding of biotinylated hGal-3 to ASF-coated plates; mean values
Sequence of human Gal-3 (hGal-3) (P17931 whole entry): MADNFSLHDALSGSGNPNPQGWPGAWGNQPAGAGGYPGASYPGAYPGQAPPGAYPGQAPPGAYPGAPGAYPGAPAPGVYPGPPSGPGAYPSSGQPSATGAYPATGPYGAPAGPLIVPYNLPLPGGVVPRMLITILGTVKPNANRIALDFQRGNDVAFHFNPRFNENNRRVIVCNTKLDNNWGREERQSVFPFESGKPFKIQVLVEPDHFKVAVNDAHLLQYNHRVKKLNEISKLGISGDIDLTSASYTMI
Method: as §1
The inhibitory activity of compounds is determined in competitive binding assays. […] Alternatively, and preferably, a human Gal-1 version in which all six cysteines are substituted by serines may be used.
Briefly, compounds are serially diluted in DMSO (working dilutions).
as §2, with “added.” for “added. OD (410 nm) is recorded after 30 to 45 min and IC50 values are calculated.”
as §3

Sequence of human Gal-1 (hGal-1) (P09382 2-135 limits assumed): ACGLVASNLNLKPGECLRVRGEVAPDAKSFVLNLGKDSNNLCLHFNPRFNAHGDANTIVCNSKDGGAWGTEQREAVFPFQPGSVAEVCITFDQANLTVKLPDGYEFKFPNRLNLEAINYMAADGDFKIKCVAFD

SMILES	IC50 [1]	IC50 [2]
CO[C@@H]1[C@@H](n2cc(-c3cc(F)c(F)c(F)c3)nn2)[C@@H](O)[C@@H](CO)O[C@H]1C(=O)N(Cc1scnc1C)[C@H]1CCCC[C@@H]1O [Example 36, (2R,3R,4S,5R,6R)-5-hydroxy-N-((1S,2S)-2-hydroxycyclohexyl)-6-(hydroxymethyl)-3-methoxy-N-((4-methylthiazol-5-yl)methyl)-4-(4-(3,4,5-trifluorophenyl)-1H-1,2,3-triazol-1-yl)tetrahydro-2H-pyran-2-carboxamide]	1030 nM	231 nM
CO[C@@H]1[C@@H](n2cc(-c3cc(F)c(F)c(F)c3)nn2)[C@@H](O)[C@@H](CO)O[C@H]1C(=O)N(Cc1nccn1C)[C@H]1CCCC[C@@H]1O [Example 37, (2R,3R,4S,5R,6R)-5-hydroxy-N-((1S,2S)-2-hydroxycyclohexyl)-6-(hydroxymethyl)-3-methoxy-N-((1-methyl-1H-imidazol-2-yl)methyl)-4-(4-(3,4,5-trifluorophenyl)-1H-1,2,3-triazol-1-yl)tetrahydro-2H-pyran-2-carboxamide]	5770 nM	337 nM
CO[C@@H]1[C@@H](n2cc(-c3cc(F)c(F)c(F)c3)nn2)[C@@H](O)[C@@H](CO)O[C@H]1C(=O)N(Cc1ccsc1C)[C@H]1CCCC[C@@H]1O [Example 38, (2R,3R,4S,5R,6R)-5-hydroxy-N-((1S,2S)-2-hydroxycyclohexyl)-6-(hydroxymethyl)-3-methoxy-N-((2-methylthiophen-3-yl)methyl)-4-(4-(3,4,5-trifluorophenyl)-1H-1,2,3-triazol-1-yl)tetrahydro-2H-pyran-2-carboxamide]	1680 nM	207 nM
COc1ccccc1CN(C(=O)[C@@H]1O[C@H](CO)[C@H](O)[C@H](n2cc(-c3cc(F)c(F)c(F)c3)nn2)[C@H]1OC)[C@H]1CCCC[C@@H]1O [Example 39, (2R,3R,4S,5R,6R)-5-hydroxy-N-((1S,2S)-2-hydroxycyclohexyl)-6-(hydroxymethyl)-3-methoxy-N-(2-methoxybenzyl)-4-(4-(3,4,5-trifluorophenyl)-1H-1,2,3-triazol-1-yl)tetrahydro-2H-pyran-2-carboxamide]	2960 nM	224 nM
COc1cccc(OC)c1CN(C(=O)[C@@H]1O[C@H](CO)[C@H](O)[C@H](n2cc(-c3cc(F)c(F)c(F)c3)nn2)[C@H]1OC)[C@H]1CCCC[C@@H]1O [Example 40, (2R,3R,4S,5R,6R)-N-(2,6-dimethoxybenzyl)-5-hydroxy-N-((1S,2S)-2-hydroxycyclohexyl)-6-(hydroxymethyl)-3-methoxy-4-(4-(3,4,5-trifluorophenyl)-1H-1,2,3-triazol-1-yl)tetrahydro-2H-pyran-2-carboxamide]	4670 nM	199 nM
Cn1ccnc1CN(C(=O)[C@@H]1O[C@H](CO)[C@H](O)[C@H](n2cc(-c3cc(F)c(F)c(F)c3)nn2)[C@H]1O)[C@H]1CCCC[C@@H]1O [Example 41, (2R,3R,4S,5R,6R)-3,5-dihydroxy-N-((1S,2S)-2-hydroxycyclohexyl)-6-(hydroxymethyl)-N-((1-methyl-1H-imidazol-2-yl)methyl)-4-(4-(3,4,5-trifluorophenyl)-1H-1,2,3-triazol-1-yl)tetrahydro-2H-pyran-2-carboxamide]	12400 nM	464 nM
CC(=O)O[C@@H]1[C@@H](n2cc(-c3cc(F)c(F)c(F)c3)nn2)[C@@H](O)[C@@H](CO)O[C@H]1C(=O)N(Cc1nccn1C)[C@H]1CCCC[C@@H]1O [Example 42]	34500 nM	212 nM
CC(=O)O[C@@H]1[C@@H](n2cc(-c3cc(F)c(F)c(F)c3)nn2)[C@@H](O)[C@@H](CO)O[C@H]1C(=O)N(Cc1ccnn1C)[C@H]1CCCC[C@@H]1O [Example 43, (2R,3R,4S,5R,6R)-5-hydroxy-2-(((1S,2S)-2-hydroxycyclohexyl)((1-methyl-1H-pyrazol-5-yl)methyl)carbamoyl)-6-(hydroxymethyl)-4-(4-(3,4,5-trifluorophenyl)-1H-1,2,3-triazol-1-yl)tetrahydro-2H-pyran-3-yl acetate]	2670 nM	76 nM
